Here are results for nine molecules from ChEMBL document CHEMBL5465560, “Selectivity Literature for EUbOPEN Chemogenomic Library” (2024).

One assay addresses Focal adhesion kinase 1 (Homo sapiens, UniProt Q05397). Nature of the assay: Selectivity interaction (Upstate Kinase Profiler service (Millipore)) EUB0000056c PTK2. Conditions: at 1 µM.
The target in assay [1] is RAC-gamma serine/threonine-protein kinase (Homo sapiens, UniProt Q9Y243). Conditions: at 10 µM.
Assay [2] concerns Tyrosine-protein kinase ABL1 (Homo sapiens), P00519 [F317I]. To be noted: at 10 µM.
Sequence of Tyrosine-protein kinase ABL1 (Homo sapiens), P00519 [F317I] (P00519 whole entry F317I): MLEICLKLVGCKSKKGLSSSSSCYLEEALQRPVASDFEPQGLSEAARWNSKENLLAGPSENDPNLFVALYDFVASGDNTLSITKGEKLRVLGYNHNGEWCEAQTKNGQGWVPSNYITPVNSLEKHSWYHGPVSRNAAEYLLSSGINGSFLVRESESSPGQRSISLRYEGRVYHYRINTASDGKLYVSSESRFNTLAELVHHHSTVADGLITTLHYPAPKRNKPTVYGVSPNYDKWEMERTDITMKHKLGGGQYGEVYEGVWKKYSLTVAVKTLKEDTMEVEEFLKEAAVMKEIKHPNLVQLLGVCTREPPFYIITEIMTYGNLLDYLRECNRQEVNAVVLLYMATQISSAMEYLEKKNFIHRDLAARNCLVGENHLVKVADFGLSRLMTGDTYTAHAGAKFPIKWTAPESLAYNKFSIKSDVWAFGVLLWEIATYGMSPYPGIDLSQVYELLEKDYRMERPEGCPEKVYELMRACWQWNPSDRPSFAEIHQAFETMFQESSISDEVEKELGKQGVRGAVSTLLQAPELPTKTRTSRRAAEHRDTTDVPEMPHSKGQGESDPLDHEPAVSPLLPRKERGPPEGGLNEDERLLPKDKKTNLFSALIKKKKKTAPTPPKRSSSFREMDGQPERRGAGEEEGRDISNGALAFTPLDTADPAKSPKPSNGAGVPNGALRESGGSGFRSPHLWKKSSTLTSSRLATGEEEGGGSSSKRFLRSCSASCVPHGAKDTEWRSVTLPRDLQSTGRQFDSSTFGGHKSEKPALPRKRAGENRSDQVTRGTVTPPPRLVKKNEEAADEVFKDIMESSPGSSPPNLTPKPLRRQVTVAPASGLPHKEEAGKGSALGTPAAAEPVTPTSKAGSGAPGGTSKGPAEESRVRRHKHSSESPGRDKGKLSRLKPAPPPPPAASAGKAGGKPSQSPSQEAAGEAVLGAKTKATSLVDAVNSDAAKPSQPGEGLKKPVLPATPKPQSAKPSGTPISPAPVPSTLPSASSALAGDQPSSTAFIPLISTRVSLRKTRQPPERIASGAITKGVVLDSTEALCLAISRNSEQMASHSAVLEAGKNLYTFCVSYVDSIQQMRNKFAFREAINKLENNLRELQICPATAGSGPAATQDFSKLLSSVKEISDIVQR
The target in assay [3] is Serine/threonine-protein kinase WNK3 (Homo sapiens) (UniProt Q9BYP7). Nature of the assay: Selectivity interaction (Ambit KINOMEscan and KiNATiv profiling in Jurkat cells) EUB0000090b WNK3. The assay is classed as cell-based. To be noted: at 1 µM.
Sequence of Serine/threonine-protein kinase WNK3 (Homo sapiens) (Q9BYP7 whole entry): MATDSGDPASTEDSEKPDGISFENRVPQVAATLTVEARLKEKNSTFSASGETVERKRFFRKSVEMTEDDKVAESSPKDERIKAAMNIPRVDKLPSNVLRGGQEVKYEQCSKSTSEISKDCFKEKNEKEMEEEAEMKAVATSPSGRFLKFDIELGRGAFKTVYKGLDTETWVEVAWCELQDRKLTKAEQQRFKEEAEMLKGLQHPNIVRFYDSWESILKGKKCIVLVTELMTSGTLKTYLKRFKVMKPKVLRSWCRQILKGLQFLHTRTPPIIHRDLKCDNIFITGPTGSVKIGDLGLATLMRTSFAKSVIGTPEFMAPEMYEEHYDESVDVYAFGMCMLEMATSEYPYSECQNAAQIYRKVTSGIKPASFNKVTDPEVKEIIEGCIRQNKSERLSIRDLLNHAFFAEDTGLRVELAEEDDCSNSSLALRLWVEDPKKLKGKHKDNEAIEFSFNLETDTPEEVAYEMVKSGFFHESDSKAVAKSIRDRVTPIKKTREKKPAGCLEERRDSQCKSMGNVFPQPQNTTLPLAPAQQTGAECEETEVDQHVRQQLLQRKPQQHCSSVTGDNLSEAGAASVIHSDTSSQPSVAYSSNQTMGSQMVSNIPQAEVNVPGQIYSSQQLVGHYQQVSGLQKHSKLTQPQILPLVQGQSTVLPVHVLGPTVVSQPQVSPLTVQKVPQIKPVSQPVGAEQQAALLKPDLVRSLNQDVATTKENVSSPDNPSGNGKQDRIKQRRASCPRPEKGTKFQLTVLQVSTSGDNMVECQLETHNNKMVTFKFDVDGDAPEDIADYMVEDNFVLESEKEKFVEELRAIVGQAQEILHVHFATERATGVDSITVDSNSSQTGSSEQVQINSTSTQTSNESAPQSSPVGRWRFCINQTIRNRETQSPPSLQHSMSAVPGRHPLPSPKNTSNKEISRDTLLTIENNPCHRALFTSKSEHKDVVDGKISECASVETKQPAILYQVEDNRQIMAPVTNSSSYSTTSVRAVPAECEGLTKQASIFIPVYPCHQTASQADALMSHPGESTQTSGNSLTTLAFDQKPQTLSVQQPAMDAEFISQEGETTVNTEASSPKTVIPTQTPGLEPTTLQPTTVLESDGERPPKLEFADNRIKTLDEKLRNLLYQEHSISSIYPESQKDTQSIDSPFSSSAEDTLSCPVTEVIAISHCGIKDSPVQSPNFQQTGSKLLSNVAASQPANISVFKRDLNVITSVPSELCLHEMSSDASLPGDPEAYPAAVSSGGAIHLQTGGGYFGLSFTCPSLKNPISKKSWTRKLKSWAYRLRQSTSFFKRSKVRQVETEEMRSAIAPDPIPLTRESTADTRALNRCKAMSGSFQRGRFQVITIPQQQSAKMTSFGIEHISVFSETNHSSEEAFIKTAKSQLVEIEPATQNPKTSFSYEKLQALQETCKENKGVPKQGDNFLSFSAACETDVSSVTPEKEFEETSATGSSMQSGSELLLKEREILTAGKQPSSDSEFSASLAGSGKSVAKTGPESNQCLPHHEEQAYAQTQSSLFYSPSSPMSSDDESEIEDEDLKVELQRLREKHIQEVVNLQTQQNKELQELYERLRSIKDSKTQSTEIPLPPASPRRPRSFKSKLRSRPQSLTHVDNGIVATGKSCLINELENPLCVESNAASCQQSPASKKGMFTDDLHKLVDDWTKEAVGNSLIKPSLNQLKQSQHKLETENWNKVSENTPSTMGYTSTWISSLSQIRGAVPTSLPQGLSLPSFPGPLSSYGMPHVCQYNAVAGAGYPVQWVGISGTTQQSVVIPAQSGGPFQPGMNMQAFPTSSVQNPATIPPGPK
For assay [4], the target named is Cyclin-dependent kinase 4 (Homo sapiens, UniProt P11802). Description: Selectivity interaction (KinomeScan (DiscoverX)) EUB0001079a CDK4. To be noted: at 1 µM.
Sequence of Cyclin-dependent kinase 4 (P11802 whole entry): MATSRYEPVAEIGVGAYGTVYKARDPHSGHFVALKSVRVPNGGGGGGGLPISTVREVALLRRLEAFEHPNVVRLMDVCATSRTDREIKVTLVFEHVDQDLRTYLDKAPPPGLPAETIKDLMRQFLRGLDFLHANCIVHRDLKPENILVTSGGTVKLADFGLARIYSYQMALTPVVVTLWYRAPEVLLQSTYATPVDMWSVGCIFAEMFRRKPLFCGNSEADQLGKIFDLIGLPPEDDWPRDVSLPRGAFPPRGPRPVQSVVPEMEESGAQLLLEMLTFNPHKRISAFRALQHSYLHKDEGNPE
Assay [5] addresses Serine/threonine-protein kinase pim-3 (Homo sapiens) (UniProt Q86V86). Nature of the assay: Selectivity interaction (KinomeScan (DiscoverX)) EUB0000092b PIM3. To be noted: at 10 µM.
Assay [6] deals with Type-2 angiotensin II receptor (Homo sapiens) (UniProt P50052). Description: Selectivity interaction (Eurofins CEREP Diversity Profile (receptors and ion channels)) EUB0000279b AGTR2. To be noted: at 10 µM.
Sequence of Type-2 angiotensin II receptor (Homo sapiens) (P50052 whole entry): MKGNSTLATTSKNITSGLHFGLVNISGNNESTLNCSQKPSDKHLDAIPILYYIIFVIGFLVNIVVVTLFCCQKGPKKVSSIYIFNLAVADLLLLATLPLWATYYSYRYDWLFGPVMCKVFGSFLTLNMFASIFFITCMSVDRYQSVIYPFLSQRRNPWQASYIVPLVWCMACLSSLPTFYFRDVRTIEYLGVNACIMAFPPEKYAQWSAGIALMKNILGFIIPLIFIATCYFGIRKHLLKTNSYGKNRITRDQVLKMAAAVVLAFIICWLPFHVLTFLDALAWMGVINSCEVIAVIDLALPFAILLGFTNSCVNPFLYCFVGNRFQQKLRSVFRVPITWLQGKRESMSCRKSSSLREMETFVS
Assay [7] addresses Mitogen-activated protein kinase 14 (Homo sapiens, UniProt Q16539). Nature of the assay: Selectivity interaction (KinomeScan (DiscoverX)) EUB0000045b MAPK14.
In assay [8] the target is T1, 3-phosphoinositide-dependent protein kinase 1 (Homo sapiens) (UniProt O15530).
T1 sequence (whole entry): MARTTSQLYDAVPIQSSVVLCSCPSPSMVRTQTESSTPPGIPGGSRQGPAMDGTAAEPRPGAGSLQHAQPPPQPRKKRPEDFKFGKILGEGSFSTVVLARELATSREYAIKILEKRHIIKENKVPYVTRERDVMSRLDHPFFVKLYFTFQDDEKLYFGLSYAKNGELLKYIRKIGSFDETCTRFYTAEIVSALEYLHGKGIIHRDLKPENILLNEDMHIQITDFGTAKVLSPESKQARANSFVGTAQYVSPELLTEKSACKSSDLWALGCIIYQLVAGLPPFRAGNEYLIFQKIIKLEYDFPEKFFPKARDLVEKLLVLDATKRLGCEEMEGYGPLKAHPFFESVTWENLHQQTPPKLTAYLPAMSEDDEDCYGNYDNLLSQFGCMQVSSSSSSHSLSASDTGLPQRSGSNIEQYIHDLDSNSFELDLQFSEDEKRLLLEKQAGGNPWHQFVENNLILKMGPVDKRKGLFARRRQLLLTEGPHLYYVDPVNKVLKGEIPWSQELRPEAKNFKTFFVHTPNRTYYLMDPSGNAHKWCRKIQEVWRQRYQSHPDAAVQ
Nature of the assay: Selectivity interaction (KinomeScan (DiscoverX)) EUB0000045b PDPK1.

The target in assay [9] is Dual specificity mitogen-activated protein kinase kinase 2 (Homo sapiens) (UniProt P36507). Description: Selectivity interaction (KinomeScan (DiscoverX)) EUB0000045b MAP2K2.
Sequence of Dual specificity mitogen-activated protein kinase kinase 2 (Homo sapiens) (P36507 whole entry): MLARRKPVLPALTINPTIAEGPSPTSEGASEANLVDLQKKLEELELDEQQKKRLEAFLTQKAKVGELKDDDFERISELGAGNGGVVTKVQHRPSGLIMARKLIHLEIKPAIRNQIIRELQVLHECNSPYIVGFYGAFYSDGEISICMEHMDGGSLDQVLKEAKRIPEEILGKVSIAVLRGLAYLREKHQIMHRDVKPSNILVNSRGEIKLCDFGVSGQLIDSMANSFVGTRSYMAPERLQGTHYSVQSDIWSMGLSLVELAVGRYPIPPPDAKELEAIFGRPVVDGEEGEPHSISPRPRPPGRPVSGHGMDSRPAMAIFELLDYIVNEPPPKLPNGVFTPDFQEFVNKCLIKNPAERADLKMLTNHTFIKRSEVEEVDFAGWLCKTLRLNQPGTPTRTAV
Assay [10] has as its target T2, Serine/threonine-protein kinase NLK (Homo sapiens) (UniProt Q9UBE8).
T2 sequence (whole entry): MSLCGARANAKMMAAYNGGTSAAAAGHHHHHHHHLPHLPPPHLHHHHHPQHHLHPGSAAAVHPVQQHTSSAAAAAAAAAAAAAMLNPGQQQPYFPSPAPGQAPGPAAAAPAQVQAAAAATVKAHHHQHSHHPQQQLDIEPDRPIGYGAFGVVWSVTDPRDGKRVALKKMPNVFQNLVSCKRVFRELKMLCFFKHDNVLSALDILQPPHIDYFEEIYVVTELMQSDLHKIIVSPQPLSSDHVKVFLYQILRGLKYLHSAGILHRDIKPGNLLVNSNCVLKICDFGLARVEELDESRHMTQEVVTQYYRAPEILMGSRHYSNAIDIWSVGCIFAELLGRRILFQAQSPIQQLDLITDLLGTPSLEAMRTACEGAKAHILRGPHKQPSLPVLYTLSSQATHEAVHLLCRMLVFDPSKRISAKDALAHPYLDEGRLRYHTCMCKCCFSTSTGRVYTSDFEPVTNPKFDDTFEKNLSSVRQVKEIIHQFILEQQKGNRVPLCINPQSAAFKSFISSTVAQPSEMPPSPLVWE
Nature of the assay: Selectivity interaction (KinomeScan (DiscoverX)) EUB0000045b NLK.

Assay [11] addresses T3, Mitogen-activated protein kinase kinase kinase 2 (Homo sapiens) (UniProt Q9Y2U5).
T3 sequence (whole entry): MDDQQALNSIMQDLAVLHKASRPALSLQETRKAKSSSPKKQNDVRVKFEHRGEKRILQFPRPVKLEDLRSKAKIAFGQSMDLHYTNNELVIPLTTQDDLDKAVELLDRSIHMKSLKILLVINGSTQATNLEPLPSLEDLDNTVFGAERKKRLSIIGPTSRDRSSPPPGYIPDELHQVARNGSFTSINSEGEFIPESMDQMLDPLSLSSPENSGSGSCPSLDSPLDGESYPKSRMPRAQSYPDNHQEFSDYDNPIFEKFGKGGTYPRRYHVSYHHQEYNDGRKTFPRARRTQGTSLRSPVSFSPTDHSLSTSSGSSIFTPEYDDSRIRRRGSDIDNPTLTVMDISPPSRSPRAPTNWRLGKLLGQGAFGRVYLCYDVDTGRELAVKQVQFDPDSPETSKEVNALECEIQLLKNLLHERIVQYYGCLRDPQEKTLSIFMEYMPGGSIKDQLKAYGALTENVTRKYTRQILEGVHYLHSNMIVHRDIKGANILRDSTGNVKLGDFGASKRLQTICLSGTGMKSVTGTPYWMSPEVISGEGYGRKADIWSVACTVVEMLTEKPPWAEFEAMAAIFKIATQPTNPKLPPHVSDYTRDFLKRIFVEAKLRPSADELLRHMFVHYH
Description: Selectivity interaction (KinomeScan (DiscoverX)) EUB0000666a MAP3K2. Conditions: at 10 µM.

For assay [12], the target named is Tyrosine-protein kinase JAK1 (Homo sapiens, UniProt P23458). Description: Selectivity interaction (ActivX KiNativ screen (kinase selectivity in THP-1 cell lysates)) EUB0000639a JAK1. The assay is classed as subcellular. Conditions: lysate, at 0.04 µM.

Sequence of Mitogen-activated protein kinase 14 (Q16539 whole entry): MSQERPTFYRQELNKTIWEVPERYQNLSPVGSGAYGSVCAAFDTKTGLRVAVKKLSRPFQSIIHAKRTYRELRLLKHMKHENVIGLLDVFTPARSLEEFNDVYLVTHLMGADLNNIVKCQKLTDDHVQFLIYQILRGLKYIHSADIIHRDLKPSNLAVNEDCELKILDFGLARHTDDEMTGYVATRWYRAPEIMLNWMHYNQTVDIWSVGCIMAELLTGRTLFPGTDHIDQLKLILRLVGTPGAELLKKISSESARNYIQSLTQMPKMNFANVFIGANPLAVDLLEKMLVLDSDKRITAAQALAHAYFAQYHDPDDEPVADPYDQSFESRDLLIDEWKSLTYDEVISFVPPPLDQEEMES
Sequence of RAC-gamma serine/threonine-protein kinase (Q9Y243 whole entry): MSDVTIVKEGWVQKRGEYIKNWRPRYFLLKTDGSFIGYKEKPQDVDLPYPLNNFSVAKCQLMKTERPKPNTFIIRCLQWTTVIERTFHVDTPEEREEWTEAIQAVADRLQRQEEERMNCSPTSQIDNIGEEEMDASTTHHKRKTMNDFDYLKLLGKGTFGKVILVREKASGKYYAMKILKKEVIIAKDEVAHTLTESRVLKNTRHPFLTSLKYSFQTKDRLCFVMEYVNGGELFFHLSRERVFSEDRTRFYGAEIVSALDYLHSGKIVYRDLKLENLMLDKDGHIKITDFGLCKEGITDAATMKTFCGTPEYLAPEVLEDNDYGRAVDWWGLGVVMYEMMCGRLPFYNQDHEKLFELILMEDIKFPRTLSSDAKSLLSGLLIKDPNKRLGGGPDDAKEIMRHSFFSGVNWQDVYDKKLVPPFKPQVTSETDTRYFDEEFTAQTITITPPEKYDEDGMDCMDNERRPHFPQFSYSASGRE

Consider `Cc1ccc(-c2ccc3c(ccc4sc5c(c43)NC[C@@H](C)NC5=O)n2)cn1`, for which, on Focal adhesion kinase 1, the % of inhibition was -2%. Turning to `Cc1cc([C@@H](C)Nc2ccccc2C(=O)O)c2nc(N3CCOCC3)cc(=O)n2c1` [AZD-6482], the % of control in [1] came to 100%; in [2], 94%. On to `CN(C)C/C=C/C(=O)Nc1ccc(C(=O)N2CCCC(Nc3ncc(Cl)c(-c4c[nH]c5ccccc45)n3)C2)cc1` (configuration not stated), for which, in assay [3], the % of control is 89%. In [4], `Nc1cnc(N2CCc3cc(S(=O)(=O)Nc4c(F)cc(Cl)cc4F)cc(N4CCCC4=O)c32)nc1` [TP-020n] yielded a % of control of 97%. Regarding `CCC(=O)N1CCN(c2ccc(-n3c(=O)ccc4cnc5ccc(-c6cnc7ccccc7c6)cc5c43)cc2C(F)(F)F)CC1`, the % of control in assay [5] was determined as 96%. For the molecule `CC(=O)c1cc(-c2ccccc2OCC2CC2)c2ncccn12`, the % of control in assay [6] was found to be 106%. Consider `C=CC(=O)Nc1cc(-n2c(=O)ccc3cnc4ccc(-c5ccc(NS(C)(=O)=O)cc5)cc4c32)ccc1C`, for which the % of control came out at 98% in [7] (at 1 µM); 100% in assay [7] (at 10 µM); 100% in [8] (at 1 µM); 100% in assay [8] (at 10 µM); 96% in assay [9] (at 1 µM); 66% in [9] (at 10 µM). In addition, the % of control in assay [10] (at 1 µM) and in [10] (at 10 µM) was 100% each time. With `O=C(NOC[C@H](O)CO)c1ccc(F)c(F)c1Nc1ccc(I)cc1F`, the % of control in assay [11] stood at 100%. `CC[C@@H]1[C@H](F)C(=O)N[C@@H]1COc1nccc2cc(C(N)=O)c(OC)cc12` [ZIMLOVISERTIB]: the % of inhibition in [12] was found to be 14.8%.
